In patent US20260327264A1, “PEPTIDE INHIBITORS OF INTERLEUKIN-23 RECEPTOR” (Zealand Pharma A/S, priority 2023, published 2026):
Read-outs that look alike come from different tables or passages of the source. *1 amine or outer side, *2 acyl side, *3 side chain or, on linkers, in order; H or OH if unused. Where a SMILES comes first, the peptide text is derived from it. Bridges are numbered along the chain shown (N, C = ends). [ ]: non-standard residue; d: D form. The star is where a group is joined. 2Nal = N[C@@H](Cc1ccc2ccccc2c1)C(=O)O; AEF = NCCOc1ccc(C[C@H](N)C(=O)O)cc1; X1 = O=C(Cc1ccc(CN[*:1])cc1)[*:2]; 3Pal = N[C@@H](Cc1cccnc1)C(=O)O; αMeL = CC(C)C[C@](C)(N)C(=O)O; Pyrrolidide = C1CCN(*)C1; Dab = NCC[C@H](N)C(=O)O

What was measured:
[1] = tested on: IL-23R; conditions: see Examples of WO2023/099669; cited from earlier work
[2] = biological target: T1, human IL-23R (Homo sapiens, UniProt Q5VWK5); test: Binding assay: displacement of fluorophore (TAMRA)-labelled reference compound from human IL-23R (BRET, Nluc-IL23R fusion protein membranes); conditions: for Emax: read-out: % displacement (hIL-23R binding)
T1 construct: Nanoluc luciferase (Nluc); secretion signal encoded by the plasmid (not specified); expressed in transfected cells; crude membranes used in the assay
T1 sequence (Q5VWK5 22-629): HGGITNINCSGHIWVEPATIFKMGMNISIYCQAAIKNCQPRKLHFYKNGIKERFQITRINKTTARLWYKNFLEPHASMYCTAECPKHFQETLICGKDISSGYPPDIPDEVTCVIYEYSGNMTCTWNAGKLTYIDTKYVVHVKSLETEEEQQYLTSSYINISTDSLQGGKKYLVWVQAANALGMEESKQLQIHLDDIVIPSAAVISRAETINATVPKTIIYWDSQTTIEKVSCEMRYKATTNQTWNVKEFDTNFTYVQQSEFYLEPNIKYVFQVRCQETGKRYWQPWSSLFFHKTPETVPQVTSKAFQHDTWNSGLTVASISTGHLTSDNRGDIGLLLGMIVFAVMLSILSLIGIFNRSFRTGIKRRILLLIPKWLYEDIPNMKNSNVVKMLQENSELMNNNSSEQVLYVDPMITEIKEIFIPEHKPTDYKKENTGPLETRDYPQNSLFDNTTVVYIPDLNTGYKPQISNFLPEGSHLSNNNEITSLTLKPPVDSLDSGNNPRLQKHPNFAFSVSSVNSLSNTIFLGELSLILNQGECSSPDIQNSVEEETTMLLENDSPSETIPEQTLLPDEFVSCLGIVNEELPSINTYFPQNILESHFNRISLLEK
Excerpt: The assay principle relies on Bioluminescence Resonance Energy Transfer (BRET) between a fluorophore-labelled reference compound binding to the IL-23R part of a fusion protein consisting of the IL-23R fused to a Nanoluc luciferase enzyme (Nanoluc). The Nanoluc is placed in the N-terminus in close proximity to the binding domain of the ligand. Upon close proximity between the fluorophore of the fluorophore-labelled compound and the Nanoluc of the fusion protein, bioluminescence energy generated from conversion of a Nanoluc substrate, is transferred to the fluorophore resulting in an increase in BRET. In presence of an unlabelled compound, the unlabelled compound displaces the fluorophore-labelled peptide from its binding site resulting in a decrease in BRET. The concentration for which half of the fluorophore-labelled peptide is displaced by the unlabelled compound depends on the affinity of the compound for the IL-23R, and is termed the IC50 concentration.
The plasmid also contained a gene to confer resistance for the antibiotic hygromycin. A cell line stably expressing the Nluc-IL23R fusion protein was generated by transfection of HEK293 cells with the expression plasmid and selected with hygromycin for 3 weeks in Growth medium consisting of DMEM w/Glutamax-I containing, 10% V/V FBS, 1% V/V P/S, 1 mM Sodium Pyruvate, and 1× NEAA, and 0.3 mg/mL hygromycin. The remaining cells were propagated and considered a stable expressing Nluc-IL23R fusion protein pool clone.
Cells expressing the Nluc-IL23R fusion protein were expanded in Growth medium and membranes prepared by homogenization of a cell pellet from 18 T175 flasks (4° C. in subsequent steps). The cell pellet was lysed Tris 10 mM, 7.5, 1 mM EDTA and protease inhibitors (Complete, Roche) and homogenized using a 15 mL glass-dounce by 50 strokes. The homogenate was spun at spin @1500 rpm for 10 min, the supernatant transferred to SV-34 tubes and spun at 40000 g for 20 min at 4° C. to pellet the crude membranes. The supernatant was then removed, the pellet resuspended in 5 mL buffer containing 50 mM HEPES pH 7.4, 5 mM EGTA, and 5 mM MgCl2, and homogenized. Aliquots of the resuspended and homogenized membranes containing the Nluc-IL23R fusion protein were stored at −80° C. until use.
The plate was sealed with light impermeable plate seals, and incubated on an orbital shaker 400 rpm for 2 hours at room temperature. To determine the BRET ratio, the plate seal was removed and 25 μL of the Nanoluc substrate (Promega N1572) diluted 1:500 was added to each well and incubated for 1-2 minutes on an orbital shaker at 400 rpm. […] The BRET ratio was calculated as the fluorescence from the TAMRA/nanoluc bioluminescence.
Compound potency (IC50) and maximal displacement (% displacement) were estimated by computer-aided curve fitting using a 4-parameter logistic (4PL) non-linear model. The IC50 and maximal for each compound was determined by computer-aided curve fitting using a 4-parameter logistic (4PL) non-linear model.

[3] = tested on: IL-23 mediated STAT3 signalling (DB cells); test: Functional inhibition of IL-23 mediated STAT3 signalling (phospho-STAT3 Tyr705) in DB cells; type: cell-based, human; conditions: for hIL-23 (pSTAT3) antagonist % inhibition: Table 3-2, maximal inhibitory response, EC80 of hIL-23
Procedure, shortened: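 Phospho-STAT3 in lysed DB cells quantified by MSD kit after 90 min exposure to EC80 human IL-23, following 15 min compound pretreatment (37° C, 5% CO2). IC50 and maximal inhibition derived from curves normalized between IL-23-only and buffer-only controls.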

[4] = Peptide stability in simulated intestinal fluid (SIF); type: in vitro ADME; conditions: pig, simulated intestinal fluid, SIF, pH 6.8, pancreatin, 37° C., 10 μM
Procedure, shortened: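 Peptide at 10 μM final in USP-type SIF (10 g/L porcine pancreatin, phosphate buffer pH 6.8), shaken at 37 °C. Samples at 0, 1 and 4 h quenched in acetonitrile/0.1% formic acid and analysed by LC-HRMS. Percent remaining calculated from absolute peak areas relative to time zero.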

[5] = Peptide stability in simulated gastric fluid (SGF); type: in vitro ADME; conditions: pig, pH 1.2, pepsin, 37° C.
Procedure, shortened: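 Peptide (10 μM final) incubated at 37 °C in USP SGF, pH 1.2 with porcine pepsin 3.2 g/L; aliquots at 0, 1 and 4 h quenched in acidified acetonitrile.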

[6] = Table 3-2, EC80 of hIL-23, read-out: hIL-23 (pSTAT3) antagonist IC50

| Emax [2] [%] | IC50 [3, 6] [nM] | remaining at 1 h, 10 µM [4] [%] | remaining at 1 h, 10 µM [5] [%] | Compound | inhibitory activity (in words), WO2023/099669 [1] | hIL-23 (pSTAT3) antagonist % inhibition [3] [%] | other results |
| --- | --- | --- | --- | --- | --- | --- | --- |
|  |  |  |  | [Ac]-DK(1c)SC(2a)WQC(2a)WWLE(1c)R-[NH2] [Ref 7] | inactive |  |  |
|  |  |  |  | D(1c)*SC(2a)WQC(2a)WWLR(1c)* [Ref 6] | inactive |  |  |
|  |  |  |  | H-DC(1a)SE(2c)WQK(2c)WWLC(1a)R-[NH2] [Ref 5] | inactive |  |  |
| 97 | 0.23 | 90 | 101 | CNC(=O)[C@H](Cc1cccnc1)NC(=O)[C@H](CCN)NC(=O)[C@@H]1CCC(=O)NCc2ccc(cc2)CC(=O)N[C@@H](CO)C(=O)N[C@H]2CCC(=O)NCC[C@H](NC(=O)[C@H](CCC(=O)N3CCCC3)NC(=O)[C@H](Cc3c[nH]c4ccccc34)NC2=O)C(=O)N[C@@H](Cc2ccc(OCCN)cc2)C(=O)N[C@@H](Cc2ccc3ccccc3c2)C(=O)N[C@@](C)(CC(C)C)C(=O)N1 [Compound 27, [4-Aminomethyl-phenylacetyl](1c)*SE(2c)W[Q(pyrrolidin)][Dab](2c)[Y(2-aminoethoxy)][2-Nal][2-Me-Leu]E(1c)[Dab][3-(3-Pyridyl)-Ala]-[NHMe]] ([X1]SEWE(Pyrrolidide)[Dab][AEF][2Nal][αMeL]E[Dab][3Pal]-NHMe; lactam 3-6, N-10) |  | 100 | IC50 [2]: 0.017 nM; remaining at 4 h, 10 µM ([4]; 4 h, read-out: SIF (% remaining 4 h)): 85%; remaining at 4 h, 10 µM ([5]; 4 h): 96% |
| 100 | 6.8 | 84 | 94 | CC(C)C[C@]1(C)NC(=O)[C@H](Cc2ccc3ccccc3c2)NC(=O)[C@H](Cc2ccc(OCCN)cc2)NC(=O)[C@@H]2CCNC(=O)CC[C@H](NC(=O)[C@H](CO)NC(=O)Cc3ccc(cc3)CNC(=O)CC[C@@H](C(=O)N[C@@H](CCN)C(=O)N[C@H](Cc3c[nH]cn3)C(N)=O)NC1=O)C(=O)N[C@@H](Cc1c[nH]c3ccccc13)C(=O)N[C@@H](CCC(N)=O)C(=O)N2 [Compound 13, [4-Aminomethyl-phenylacetyl](1c)*SE(2c)WQ[Dab](2c)[Y(2-aminoethoxy)][2-Nal][2-Me-Leu]E(1c)[Dab][{d}H]-[NH2]] |  | 99 | IC50 ([3]; EC80 of hIL-23, read-out: IC50 (pSTAT3)): 6.8 nM |
